Results on two compounds are retold here after patent US12440527B2, “Organic sol-gel nano-composition from panax notoginseng, rutin, ginkgo biloba effective in enhancing cerebral and cardiovascular protection and method of producing thereof” (priority 2020, dated 2025).

What all share (format): in vivo
The subject of one test is white mice. Put plainly: Sedative effect on the advanced plus model (close/open branch). How it is done:
(§1) In the test, the white mice were randomly divided into 4 batches, each batch having 10 animals: Batch 1 (biological control) was subjected to oral administration of 20 mL/kg/day distilled water; batch 2 (positive control) was subjected to oral administration of 2.4 mg/kg/day diazepam; batch 3 was subjected to oral administration of the composition at dose of 0.96 pill/kg/day (equivalent to the clinical dose); batch 4 was subjected to oral administration of the composition at dose of 2.88 pill/kg/day (3 times as much as the clinical dose).

The subject of test [1] is white mice injected with nikethamide. Put plainly: Anticonvulsant effect after nikethamide injection. How it is done:
as §1, with “dose). After the mice were injected with nikethamide, the time of convulsion onset and the death time of the mice were taken.” for “dose).”

Test [2] deals with white mice injected with nitroglycerin (NTG), chronic migraine model. Put plainly: Vasomotor pain relieving effect on chronic migraine model (nitroglycerin injection, dolorimeter). The following applies: oral 40 mg/kg propranolol, NTG 10 mg/kg. On the procedure: In the test, the white mice were randomly divided into 5 batches, each batch having 10 animals: Batch 1 (biological control) was subjected to oral administration of 0.2 ml/10 g water; batch 2 (model) injected 10 mg/kg with nitroglycerin (NTG) was subjected to oral administration of 0.2 mL/10 g water; batch 3 (positive control) injected with 10 mg/kg nitroglycerin was subjected to oral administration of 40 mg/kg propranolol; batch 4 injected with 10 mg/kg nitroglycerin was subjected to oral administration of the composition at dose of 0.96 pill/kg/day (equivalent to the clinical dose); batch 5 injected with 10 mg/kg nitroglycerin was subjected to oral administration of the composition at dose of 2.88 pill/kg/day (3 times as much as the clinical dose).

Where [3] appears, read: After 7 days of oral administration of the drug, Diazepam at 2.4 mg/kg/day.
Setting [4] is: Before oral administration of the drug, Diazepam at 2.4 mg/kg/day batch.

With `CN1C(=O)CN=C(c2ccccc2)c2cc(Cl)ccc21` [Diazepam, diazepam], in the test with white mice (setting [3]), the “Avoidance rate at the open branch” value is reported as 46.37 ± 9.21, the “Number of times of mouse introduction into the close branch” value is 6.40, the “Number of times of mouse introduction into the open branch” value is 6.90 and the “Time of mouse introduction into the close branch” value was found to be 121.20 s. The “Time of mouse introduction into the open branch” value with white mice (setting [3]) stood at 150.10 s. In the test on white mice (setting [4]), the “Avoidance rate at the open branch” value is 69.21 ± 8.88, the “Number of times of mouse introduction into the close branch” value is given as 11.50, the “Number of times of mouse introduction into the open branch” value is reported as 4.30 and the “Time of mouse introduction into the close branch” value was determined as 173.70 s. In the test on white mice (setting [4]), the “Time of mouse introduction into the open branch” value amounted to 90.40 s. Further, the “Effect on time of convulsion onset and death time vs model batch” value in test [1] (2.4 mg/kg/day diazepam, after nikethamide injection) was “took effects in prolonging the time of convulsion onset and the death time”. Besides, the “Death time of the mice after nikethamide injection” value in test [1] (Diazepam at 2.4 mg/kg/day oral) came to 14.91 ± 3.67 min. The “Time of convulsion onset” value in test [1] (Diazepam at 2.4 mg/kg/day oral, after nikethamide injection) worked out at 2.08 ± 0.55 min.

Regarding `CC(C)NCC(O)COc1cccc2ccccc12` (centres unmarked) [Propranolol, propranolol], the “Pain-inducing force in the dolorimeter (baseline pain threshold)” value in test [2] (Day 3) came out at 7.6 ± 1.5 g; in test [2] (Day 5) it was 6.5 ± 1.1 g; in test [2] (Day 7), 6.4 ± 1.0 g; in test [2] (Day 9), 7.1 ± 0.9 g; in test [2] (Day 11), 7.1 ± 1.0 g. Besides, the “Pain-inducing force on the dolorimeter (pain threshold after treatment)” value is on record as 6.8 ± 1.2 g in test [2] (Day 3); 7.0 ± 1.0 g in test [2] (Day 5); 6.7 ± 0.5 g in test [2] (Day 7); 6.7 ± 0.5 g in test [2] (Day 9); 7.8 ± 0.7 g in test [2] (Day 11).
